In ChEMBL document CHEMBL3875157, “Neurodegenerative diseases linked to misfolded proteins and their therapeutic approaches: A review” (Eur J Med Chem, 2016):

Target: Acetylcholinesterase (Homo sapiens, UniProt P22303)
Experiment: Inhibition of acetylcholinesterase (unknown origin)

Sequence of Acetylcholinesterase (P22303 whole entry): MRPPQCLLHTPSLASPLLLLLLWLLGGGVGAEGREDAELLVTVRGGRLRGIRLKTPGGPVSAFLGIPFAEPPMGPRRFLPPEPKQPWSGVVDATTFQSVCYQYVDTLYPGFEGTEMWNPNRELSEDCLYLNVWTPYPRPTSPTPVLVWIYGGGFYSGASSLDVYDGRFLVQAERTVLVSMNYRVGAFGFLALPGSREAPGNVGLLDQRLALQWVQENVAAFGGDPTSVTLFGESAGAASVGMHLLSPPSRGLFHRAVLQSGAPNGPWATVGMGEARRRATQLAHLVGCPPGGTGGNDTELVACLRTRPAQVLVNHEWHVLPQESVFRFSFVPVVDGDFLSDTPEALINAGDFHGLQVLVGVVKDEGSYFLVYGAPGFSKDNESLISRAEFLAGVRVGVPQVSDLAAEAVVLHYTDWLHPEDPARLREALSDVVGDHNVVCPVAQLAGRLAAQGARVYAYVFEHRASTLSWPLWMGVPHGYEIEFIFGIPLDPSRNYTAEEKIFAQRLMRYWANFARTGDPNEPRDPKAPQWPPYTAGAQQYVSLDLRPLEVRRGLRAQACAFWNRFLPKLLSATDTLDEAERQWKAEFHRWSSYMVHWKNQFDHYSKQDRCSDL

In the case of `CCOC(=O)C1=C(C)Oc2nc3c(c(N)c2C1c1ccc(OC)cc1)CCCC3` (stereo unspecified), the IC50 is reported as 182 to 868 nM.
